Like-named read-outs stand apart in the source and are kept apart here.
Biological target: T1, NL20 human bronchial epithelial cells expressing human Z-AAT (Homo sapiens, UniProt P01009, E366K)
T1 construct: expressed in transfected cells; host or cells: NL20 human bronchial epithelial cells (NL20-SI line, doxycycline added)
Experiment: AAT Function Assay (MSD Assay NL20-SI Cell Line)
Format: cell-based
Settings: functionally active AAT (AAT-hNE complex) in supernatant of NL20 cells expressing human Z-AAT
Summary of the method: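 NL20 cells expressing Z-AAT, seeded 16,000 cells/well, received compound with doxycycline (0.1 μM final) and were incubated overnight at 37° C. Supernatants, diluted 45-fold in total, reacted with excess human neutrophil elastase; AAT-elastase complex captured on anti-AAT plates, detected with Sulfo-tagged anti-elastase by MSD electrochemiluminescence, and quantified against M-AAT standards (0.156-320 ng/mL).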

T1 sequence (P01009 25-418 E366K): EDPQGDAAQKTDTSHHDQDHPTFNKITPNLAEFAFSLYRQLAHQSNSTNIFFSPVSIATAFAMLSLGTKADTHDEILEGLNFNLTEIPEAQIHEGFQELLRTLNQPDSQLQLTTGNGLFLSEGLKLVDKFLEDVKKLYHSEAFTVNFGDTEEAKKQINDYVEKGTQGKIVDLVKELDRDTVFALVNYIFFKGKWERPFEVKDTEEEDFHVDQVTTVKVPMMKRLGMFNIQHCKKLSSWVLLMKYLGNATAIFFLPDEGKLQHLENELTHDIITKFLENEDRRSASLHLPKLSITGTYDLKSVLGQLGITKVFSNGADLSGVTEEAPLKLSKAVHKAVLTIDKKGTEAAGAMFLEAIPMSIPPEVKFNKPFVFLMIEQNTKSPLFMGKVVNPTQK

| EC50 (read-out: NL20 Func. (EC50)) | Compound | EC50 (NL20 Func. (EC50)) |
| --- | --- | --- |
| < 1.16 µM | Cc1cc(-n2c(C(C)C)c(C3CC3C(=O)O)c3cc4[nH]ncc4cc32)ccc1F (single isomer, unassigned) [Compound 14, 2-[5-(4-fluoro-3-methyl-phenyl)-6-isopropyl-1H-pyrrolo[2,3-f]indazol-7-yl]cyclopropanecarboxylic acid] |  |
| < 1.16 µM | Cc1cc(-n2c(C3CCOCC3)c(C3CC4(CC(C(=O)O)C4)C3)c3cc4[nH]ncc4cc32)ccc1F (racemic) [Compound 90] |  |
| > 3 µM | CC(C)(C)c1c(C#N)c2cc3[nH]ncc3cc2n1-c1ccc(F)cc1 [Compound 143, 6-tert-butyl-5-(4-fluorophenyl)-1H-pyrrolo[2,3-f]indazole-7-carbonitrile] |  |
| < 1.16 µM | CC(C)c1c(C2CC3(CC(C(=O)O)C3)C2)c2cc3[nH]ncc3cc2n1-c1ccc(F)cc1 (single isomer, unassigned) [Compound 36, 6-[5-(4-fluorophenyl)-6-isopropyl-1H-pyrrolo[2,3-f]indazol-7-yl]spiro[3.3]heptane-2-carboxylic acid] |  |
| 1.16 to 3 µM | CC(C)c1c(/C=C/C(=O)O)c2cc3[nH]ncc3cc2n1-c1ccc(F)cc1 [Compound 31, (E)-3-[5-(4-fluorophenyl)-6-isopropyl-1H-pyrrolo[2,3-f]indazol-7-yl]prop-2-enoic Acid] |  |
| < 1.16 µM | Cc1cc(-n2c(C(C)C)c(C3CC4(CC(C(=O)O)C4)C3)c3c(F)c4[nH]nc(C)c4cc32)ccc1F (racemic) [Compound 59, 6-[8-fluoro-5-(4-fluoro-3-methyl-phenyl)-6-isopropyl-3-methyl-1H-pyrrolo[2,3-f]indazol-7-yl]spiro[3.3]heptane-2-carboxylic Acid] |  |
| > 3 µM | Cc1cc(-n2c(C(C)C)c(N3CCOCC3=O)c3cc4[nH]ncc4cc32)ccc1F [Compound 9, 4-[5-(4-fluoro-3-methyl-phenyl)-6-isopropyl-1H-pyrrolo[2,3-f]indazol-7-yl]morpholin-3-one] |  |
| > 3 µM | CC(C)c1c(C2CNC2)c2cc3[nH]ncc3cc2n1-c1ccc(F)cc1 [Compound 174, 7-(azetidin-3-yl)-5-(4-fluorophenyl)-6-isopropyl-1H-pyrrolo[2,3-f]indazole] |  |
| < 1.16 µM | CC(C)c1c(C2CC3(CC(C(=O)O)C3)C2)c2cc3[nH]ncc3cc2n1-c1ccc(F)cc1 (single isomer, unassigned) [Compound 35, 6-[5-(4-fluorophenyl)-6-isopropyl-1H-pyrrolo[2,3-f]indazol-7-yl]spiro[3.3]heptane-2-carboxylic acid] |  |
| < 1.16 µM | CC1(C(=O)O)CC(c2c(C3CCOCC3)n(-c3ccc(F)c(F)c3)c3cc4cn[nH]c4cc23)C1 (single isomer, unassigned) [Compound 70] |  |
| 1.16 to 3 µM | [2H]C(C(=O)O)C([2H])c1c(C(C)C)n(-c2ccc(F)cc2)c2cc3cn[nH]c3cc12 (centres unmarked) [Compound 167, 2,3-dideuterio-3-[5-(4-fluorophenyl)-6-isopropyl-1H-pyrrolo[2,3-f]indazol-7-yl]propanoic Acid] |  |
| > 3 µM | Cc1cc(-n2c(C3CCOCC3)c(CC34CC(C(=O)O)(C3)C4)c3cc4[nH]ncc4cc32)ccc1F [Compound 103] |  |
| > 3 µM | O=C(O)[C@H]1C[C@@H](c2c(C3CCOCC3)n(-c3ccc(F)cc3)c3cc4cn[nH]c4cc32)C1 [Compound 112] |  |
| < 1.16 µM | Cc1cc(-n2c(C(C)C)c(C3CC(C)(C(=O)O)C3)c3cc4[nH]nc(C)c4cc32)ccc1F (mixture of isomers) [Compound 55, 3-[5-(4-fluoro-3-methyl-phenyl)-6-isopropyl-3-methyl-1H-pyrrolo[2,3-f]indazol-7-yl]-1-methyl-cyclobutanecarboxylic Acid] |  |
| < 1.16 µM | CC(C)c1c(C23CC(C(=O)O)(C2)C3)c2cc3[nH]ncc3cc2n1-c1ccc(F)cc1 [Compound 210, 3-(5-(4-fluorophenyl)-6-isopropyl-1,5-dihydropyrrolo[2,3-f]indazol-7-yl)bicyclo[1.1.1]pentane-1-carboxylic Acid] |  |
| 1.16 to 3 µM | COCCc1c(C2CCOCC2)n(-c2ccc(F)cc2)c2cc3cn[nH]c3cc12 [Compound 149] |  |
| 1.16 to 3 µM | CC(C)c1c(CC2(C(=O)O)CC2)c2cc3[nH]ncc3cc2n1-c1cccc(C(F)(F)F)c1 [Compound 39, 1-[[6-isopropyl-5-[3-(trifluoromethyl)phenyl]-1H-pyrrolo[2,3-f]indazol-7-yl]methyl]cyclopropanecarboxylic Acid] |  |
| 1.16 to 3 µM | O=C(O)[C@H]1CC[C@H](Cc2c(C3CCOCC3)n(-c3ccc(F)cc3)c3cc4cn[nH]c4cc23)CC1 [Compound 119] |  |
| > 3 µM | O=C(O)[C@H]1C[C@H](Cc2c(C3CCOCC3)n(-c3ccc(F)cc3)c3cc4cn[nH]c4cc23)C1 [Compound 118] |  |
| < 1.16 µM | Cc1cc(-n2c(C(C)C)c(C(C)CC(=O)O)c3cc4[nH]ncc4cc32)ccc1F (single isomer, unassigned) [Compound 28] |  |
| > 3 µM | NC(=O)NCCCc1c(C2CCOCC2)n(-c2ccc(F)cc2)c2cc3cn[nH]c3cc12 [Compound 157, 3-[5-(4-fluorophenyl)-6-tetrahydropyran-4-yl-1H-pyrrolo[2,3-f]indazol-7-yl]propylurea] |  |

| EC50 (read-out: NL20 Func. (EC50)) | Compound | EC50 (NL20 Func. (EC50)) |
| --- | --- | --- |
| < 1.16 µM | [H][C@]1(C(=O)O)C[C@]2(C1)C[C@@]([H])(c1c(C3CCOCC3)n(-c3ccc(F)c(C)c3)c3cc4cn[nH]c4cc31)C2 (single isomer, unassigned) [Compound 91] |  |
| < 1.16 µM | Cn1cc(CCCc2c(C3CCOCC3)n(-c3ccc(F)cc3)c3cc4cn[nH]c4cc23)cn1 [Compound 144] |  |
| > 3 µM | NC(=O)N1CCCC(Cc2c(C3CCOCC3)n(-c3ccc(F)cc3)c3cc4cn[nH]c4cc23)C1 (centres unmarked) [Compound 155, 3-[[5-(4-fluorophenyl)-6-tetrahydropyran-4-yl-1H-pyrrolo[2,3-f]indazol-7-yl]methyl]piperidine-1-carboxamide] |  |
| 1.16 to 3 µM | O=C(O)CC1CC(c2c(C3CCOCC3)n(-c3ccc(F)c(Cl)c3)c3cc4cn[nH]c4cc23)C1 (mixture of isomers) [Compound 85] |  |
| > 3 µM | Cc1cc(-n2c(C(C)C)c(C(=O)NC3COC3)c3cc4[nH]ncc4cc32)ccc1F [Compound 7, 5-(4-fluoro-3-methyl-phenyl)-6-isopropyl-N-(oxetan-3-yl)-1H-pyrrolo[2,3-f]indazole-7-carboxamide] |  |
| > 3 µM | Cc1cc(-n2c(C(C)C)cc3c(C)c4[nH]ncc4cc32)ccc1F [Compound 49, 5-(4-fluoro-3-methyl-phenyl)-6-isopropyl-8-methyl-1H-pyrrolo[2,3-f]indazole] |  |
| > 3 µM | O=C(O)C1CC2(C1)CC(c1c(C3CCOC3)n(-c3ccc(F)cc3)c3cc4cn[nH]c4cc13)C2 (racemic) [Compound 140, 6-[5-(4-fluorophenyl)-6-tetrahydrofuran-3-yl-1H-pyrrolo[2,3-f]indazol-7-yl]spiro[3.3]heptane-2-carboxylic acid] |  |
| < 1.16 µM | Cc1cc(-n2c(C(C)C)c(C3CC(C(=O)O)C3)c3cc4[nH]ncc4cc32)ccc1F (mixture of isomers) [Compound 18] |  |
| 1.16 to 3 µM | Cc1cc(-n2c(C3CCOCC3)c([C@H]3C[C@H](C(=O)O)C3)c3cc4[nH]ncc4cc32)ccc1F [Compound 100] |  |
| 1.16 to 3 µM | Fc1ccc(-n2c(C3CCOCC3)c(Cl)c3cc4[nH]ncc4cc32)cc1 [Compound 63, 7-chloro-5-(4-fluorophenyl)-6-tetrahydropyran-4-yl-1H-pyrrolo[2,3-f]indazole] |  |
| 1.16 to 3 µM | O=C(O)C1CCC(Cc2c(C3CCOCC3)n(-c3ccc(F)c(Cl)c3)c3cc4cn[nH]c4cc23)CC1 (mixture of isomers) [Compound 83] |  |
| 1.16 to 3 µM | Cc1cc(-n2c(C3CCOCC3)c(C[C@H]3C[C@H](C(=O)O)C3)c3cc4[nH]ncc4cc32)ccc1F (single isomer, unassigned) [Compound 98] |  |
| 1.16 to 3 µM | O=C(O)[C@H]1CC[C@H](Cc2c(C3CCOCC3)n(-c3ccc(F)c(F)c3)c3cc4cn[nH]c4cc23)CC1 (single isomer, unassigned) [Compound 74] |  |
| 1.16 to 3 µM | [2H]C(C(=O)O)C([2H])([2H])c1c(C(C)C)n(-c2ccc(F)cc2)c2cc3cn[nH]c3cc12 (centres unmarked) [Compound 168, 2,3,3-trideuterio-3-[5-(4-fluorophenyl)-6-isopropyl-1H-pyrrolo[2,3-f]indazol-7-yl]propanoic acid] |  |
| > 3 µM | O=C(O)CCc1c(C2CCOCC2)n(-c2ccc(F)c(Cl)c2)c2cc3cn[nH]c3cc12 [Compound 82] |  |
| > 3 µM | CC(C)c1c(CCC(=O)O)c2cc3[nH]ccc3cc2n1-c1ccc(F)cc1 [Compound 200, 3-[1-(4-fluorophenyl)-2-isopropyl-5H-pyrrolo[2,3-f]indol-3-yl]propanoic Acid] |  |
| 1.16 to 3 µM | Cc1cc(-n2c(C(C)C)c(I)c3cc4[nH]ncc4cc32)ccc1F [Compound 1, 5-(4-fluoro-3-methyl-phenyl)-7-iodo-6-isopropyl-1H-pyrrolo[2,3-f]indazole] |  |
| 1.16 to 3 µM | O=C(O)C1CC2(C1)CC(c1c(C3C[C@H]4CC[C@@H](C3)O4)n(-c3ccc(F)cc3)c3cc4cn[nH]c4cc13)C2 (mixture of isomers) [Compound 122, 6-[5-(4-fluorophenyl)-6-(8-oxabicyclo[3.2.1]octan-3-yl)-1H-pyrrolo[2,3-f]indazol-7-yl]spiro[3.3]heptane-2-carboxylic Acid] |  |
|  | Cc1cccc(-n2c(C(C)C)c(C#N)c3cc4[nH]ncc4cc32)c1 [Compound 44, 6-isopropyl-5-(m-tolyl)-1H-pyrrolo[2,3-f]indazole-7-carbonitrile] | > 3 µM |
| < 1.16 µM | O=C(O)C1CC2(C1)CC(c1c(C3CCOCC3)n(-c3ccc(F)cc3)c3cc4cn[nH]c4c(F)c13)C2 (racemic) [Compound 135, 6-[8-fluoro-5-(4-fluorophenyl)-6-tetrahydropyran-4-yl-1H-pyrrolo[2,3-f]indazol-7-yl]spiro[3.3]heptane-2-carboxylic acid] |  |

— patent publication US11623924B2, “Modulators of alpha-1 antitrypsin” (Vertex Pharmaceuticals Incorporated, priority 2018, dated 2023)
